# From patent US5191093A, “Process for preparing crystalline calcium pseudomonate” (Beecham Group p.l.c., priority 1990, dated 1993)
# Where two headings read alike, the source gives them in different places.
# Assays:
# [1] = format: physicochemical
# Excerpt: |Thermal stability data: for crystalline calcium |pseudomate dihydrate, amorphous calcium pseudomonate |Percentage |Initial |Potency |after |Storage ** | ** Expressed as percentage of initial purity.
# M.bovigenitalium = experiment: In vitro MIC against Mycoplasma, Friis broth agarose; format: cell-based; settings: 144 h; strain ATCC 14173; 6 days at 37° C.
# Protocol: (§1) The activity of the compounds of the Examples against various mycoplasmal organisms was assayed in vitro in Friis broth solidified with 0.9% agarose and inoculated with 10^3 to 10^5 C.F.U. The minimum inhibitory concentrations (MIC's) were determined after incubation for 6 days at 37° C. and are shown in Table 1.
# M.bovis = experiment: as above; format: cell-based; settings: NCTC10131, 144 h
# Protocol: as §1
# M.gallisepticum = experiment: as above; format: cell-based; settings: Mycoplasmoides gallisepticum, 144 h; strain S6; 6 days at 37° C.
# Protocol: as §1
# M.hyopneumoniae = experiment: as above; format: cell-based
# Protocol: as §1
# M.hyorhinis = experiment: as above; format: cell-based; settings: Mesomycoplasma hyorhinis, 6 days at 37° C.
# Protocol: as §1
# M.hyosynoviae = experiment: as above; format: cell-based; settings: 144 h; strain ATCC 25591; 6 days at 37° C.
# Protocol: as §1
# M.pneumoniae = experiment: as above; format: cell-based; settings: Mycoplasmoides pneumoniae, ATCC15492, 144 h; strain ATCC 15492; 6 days at 37° C.
# Protocol: as §1
# Past.haemolytica = experiment: In vitro MIC against veterinary bacteria, Diagnostic Sensitivity Test Agar; format: cell-based; settings: Mannheimia haemolytica; strain PA5; 18 hours at 37° C.
# Protocol: (§2) The activity of the compounds of the Examples against various veterinarily important bacteria, was assayed in vitro using two-fold serial dilutions in Diagnostic Sensitivity Test Agar inoculated with 10^4 organisms.
# Past.multocida = experiment: as above; format: cell-based; settings: Pasteurella multocida; strain PA1; 18 hours at 37° C.
# Protocol: as §2
# Staph.aureus = experiment: as above; format: cell-based; settings: Staphylococcus aureus, 18 h, 18 hours at 37° C.
# Protocol: as §2
# Bacillus subtilis = experiment: In vitro MIC against human bacteria, nutrient agar with 5% chocolated horse blood; format: cell-based; settings: strain 6633, 18 hours at 37° C.
# Protocol: (§3) The activity of the compounds of the Examples against various bacteria which are important in diseases of humans, was assayed in vitro using serial dilutions in nutrient agar with 5% chocolated horse blood.
# Corynebacterium xerosis = experiment: as above; format: cell-based; settings: strain 9755, 18 hours at 37° C.
# Protocol: as §3
# E.coli = experiment: as above; format: cell-based; settings: Escherichia coli, 18 hours at 37° C.
# Protocol: as §3
# Haemophilus influenzae = experiment: as above; format: cell-based; settings: 18 hours at 37° C.
# Protocol: as §3
# K.aerogenes = experiment: as above; format: cell-based; settings: Klebsiella aerogenes; strain A; 18 hours at 37° C.
# Protocol: as §3
# Neisseria catarrhalis = experiment: as above; format: cell-based; settings: strain 1502, 18 hours at 37° C.
# Protocol: as §3
# P.aeruginosa = experiment: as above; format: cell-based; settings: Pseudomonas aeruginosa; strain 10662; 18 hours at 37° C.
# Protocol: as §3
# Pasteurella multocida = experiment: as above; format: cell-based; settings: strain 1633, 18 hours at 37° C.
# Protocol: as §3
# R.mirabilis = experiment: as above; format: cell-based; settings: strain 889; 18 hours at 37° C.
# Protocol: as §3
# S.agalactiae = experiment: as above; format: cell-based; settings: 18 hours at 37° C.
# Protocol: as §3
# S.aureus = experiment: as above; format: cell-based; settings: Staphylococcus aureus, 18 h, 18 hours at 37° C.
# Protocol: as §3
# S.faecalis = experiment: as above; format: cell-based; settings: 18 hours at 37° C.
# Protocol: as §3
# S.pneumoniae = experiment: as above; format: cell-based; settings: Streptococcus pneumoniae; strain CN33; 18 hours at 37° C.
# Protocol: as §3
# S.pyogenes = experiment: as above; format: cell-based; settings: Streptococcus pyogenes, 18 h, 18 hours at 37° C.
# Protocol: as §3
# Sarcina lutea = experiment: as above; format: cell-based; settings: Micrococcus luteus; strain 8340; 18 hours at 37° C.
# Protocol: as §3
# Streptococcus Spp = experiment: as above; format: cell-based; settings: 18 hours at 37° C.
# Protocol: as §3
compound,measurement,setting,value
"CC(=CC(=O)OCCCCCCCCC(=O)O)CC1OCC(CC2OC2C(C)C(C)O)C(O)C1O (centres unmarked) [Calcium Pseudomonate dihydrate, Calcium Pseudomonate Dihydrate]",Percentage Initial Potency after Storage,[1]; 192 h,97%
same,Percentage Initial Potency after Storage,[1]; 240 h,98.9%
same,MIC,M.bovigenitalium,0.1 µg/mL
same,MIC,M.bovis,0.025 µg/mL
same,MIC,M.gallisepticum,> 10 µg/mL
same,MIC,"M.hyopneumoniae; Mesomycoplasma hyopneumoniae, 144 h, mean of M.hyopneumoniae strains, read-out: MIC, MEAN",2.5 µg/mL
same,MIC,"M.hyopneumoniae; Mesomycoplasma hyopneumoniae, 144 h, strain JF 435, 6 days at 37° C., read-out: MIC",2.5 µg/mL
same,MIC,"M.hyopneumoniae; Mesomycoplasma hyopneumoniae, NCTC10110, 144 h, strain NCTC 10110, 6 days at 37° C., read-out: MIC",2.5 µg/mL
same,MIC,"M.hyopneumoniae; strain ATTCC 25095, 6 days at 37° C.",2.5 µg/mL
same,MIC,"M.hyopneumoniae; strain HK (2), 6 days at 37° C.",2.5 µg/mL
same,MIC,"M.hyopneumoniae; strain J2206/183b, 6 days at 37° C.",2.5 µg/mL
same,MIC,"M.hyopneumoniae; strain LABER, 6 days at 37° C.",2.5 µg/mL
same,MIC,"M.hyopneumoniae; strain MS16, 6 days at 37° C.",2.5 µg/mL
same,MIC,"M.hyopneumoniae; strain PW/C/210, 6 days at 37° C.",2.5 µg/mL
same,MIC,"M.hyopneumoniae; strain Str 11, 6 days at 37° C.",2.5 µg/mL
same,MIC,"M.hyopneumoniae; strain TAM 6N, 6 days at 37° C.",2.5 µg/mL
same,MIC,"M.hyopneumoniae; strain UCD1, 6 days at 37° C.",2.5 µg/mL
same,MIC,"M.hyorhinis; ATCC23234, 144 h, strain ATCC 23234",1 µg/mL
same,MIC,"M.hyorhinis; ATCC25021, 144 h, strain ATCC 25021",1 µg/mL
same,MIC,M.hyosynoviae,0.5 µg/mL
same,MIC,M.pneumoniae,5 µg/mL
same,MIC,Past.haemolytica,2.5 µg/mL
same,MIC,Past.multocida,0.07 µg/mL
same,MIC,Staph.aureus; strain 152 (pen.sens.),0.16 µg/mL
same,MIC,Staph.aureus; strain (Mexi),0.16 µg/mL
same,MIC,Staph.aureus; strain B4 (pen.resistant),0.16 µg/mL
same,MIC,Staph.aureus; strain M60,0.16 µg/mL
same,MIC,Staph.aureus; strain Oxford,< 0.1 µg/mL
same,MIC,Bacillus subtilis,0.5 µg/mL
same,MIC,Corynebacterium xerosis,> 128 µg/mL
same,MIC,"E.coli; NCTC10418, strain NCTC 10418",128 µg/mL
same,MIC,E.coli; strain ESS,2 µg/mL
same,MIC,"Haemophilus influenzae; Haemophilus influenzae, strain Q1, read-out: MIC",0.13 µg/mL
same,MIC,Haemophilus influenzae; strain Wy21,0.13 µg/mL
same,MIC,K.aerogenes,> 128 µg/mL
same,MIC,Neisseria catarrhalis,0.13 µg/mL
same,MIC,P.aeruginosa,> 128 µg/mL
same,MIC,Pasteurella multocida,0.5 µg/mL
same,MIC,R.mirabilis,128 µg/mL
same,MIC,"S.agalactiae; Streptococcus agalactiae, strain 2788-B, read-out: MIC",0.5 µg/mL
same,MIC,S.agalactiae; strain 2798B,0.5 µg/mL
same,MIC,S.agalactiae; strain 2866B,0.5 µg/mL
same,MIC,"S.aureus; strain Oxford, read-out: MIC",0.13 µg/mL
same,MIC,"S.aureus; strain Russell, read-out: MIC",0.25 µg/mL
same,MIC,"S.aureus; strain T2P-, read-out: MIC",0.25 µg/mL
same,MIC,S.aureus; strain T22P-,0.25 µg/mL
same,MIC,S.aureus; strain T63P+,0.25 µg/mL
same,MIC,S.aureus; strain T67P+,0.5 µg/mL
same,MIC,"S.aureus; strain V331, read-out: MIC",0.5 µg/mL
same,MIC,"S.aureus; strain V352, read-out: MIC",0.5 µg/mL
same,MIC,"S.aureus; strain W2827, read-out: MIC",0.25 µg/mL
same,MIC,"S.faecalis; Enterococcus faecalis, strain Tunisia, read-out: MIC",128 µg/mL
same,MIC,S.faecalis; strain I(ER+),128 µg/mL
same,MIC,S.faecalis; strain I,128 µg/mL
same,MIC,S.faecalis; strain PAGE,128 µg/mL
same,MIC,S.pneumoniae,0.03 µg/mL
same,MIC,S.pyogenes; strain 1947A,0.13 µg/mL
same,MIC,S.pyogenes; strain 1953-A,0.13 µg/mL
same,MIC,S.pyogenes; strain BcA,0.5 µg/mL
same,MIC,S.pyogenes; strain CN10A,0.03 µg/mL
same,MIC,Sarcina lutea,> 128 µg/mL
same,MIC,"Streptococcus Spp; Streptococcus, S.spp. strain 64/848-C, read-out: MIC",0.5 µg/mL
same,MIC,Streptococcus Spp; strain 2373C,0.5 µg/mL
same,MIC,Streptococcus Spp; strain 2465C,0.5 µg/mL
same,MIC,Streptococcus Spp; strain 2761C,0.5 µg/mL
